# From PubChem BioAssay (NCI)
#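 Growth conditions: 96-well plates. Treatment: test compound, 48 hours, 5 concentrations. Analysis: linear interpolation between bracketing concentrations; unreached endpoints set to highest concentration. The concentration for full growth arrest is given as TGI.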
# Assays:
# Assay in all cases: NCI tumour cell line growth inhibition, 48 h
# HCC-2998 colon = system: HCC-2998 colon
# M19-MEL melanoma = system: M19-MEL melanoma
# ACHN renal = system: ACHN renal
# KM20L2 colon = system: KM20L2 colon
# TK-10 renal = system: TK-10 renal
# OVCAR-3 ovarian = system: OVCAR-3 ovarian
# HCT-116 colon = system: HCT-116 colon
# SF-268 CNS = system: SF-268 CNS
# A498 renal = system: A498 renal
# SW-620 colon = system: SW-620 colon
# MALME-3M melanoma = system: MALME-3M melanoma
# UO-31 renal = system: UO-31 renal
# DLD-1 colon = system: DLD-1 colon
# SK-MEL-5 melanoma = system: SK-MEL-5 melanoma
# HOP-92 NSCLC = system: HOP-92 NSCLC
# OVCAR-5 ovarian = system: OVCAR-5 ovarian
# UACC-62 melanoma = system: UACC-62 melanoma
# HOP-62 NSCLC = system: HOP-62 NSCLC
# M14 melanoma = system: M14 melanoma
# 786-0 renal = system: 786-0 renal
# DMS 114 small cell lung = system: DMS 114 small cell lung
# U251 CNS = system: U251 CNS
# SF-295 CNS = system: SF-295 CNS
# NCI-H522 lung = system: NCI-H522 lung
# DMS 273 small cell lung = system: DMS 273 small cell lung
# SK-OV-3 ovarian = system: SK-OV-3 ovarian
# SNB-75 CNS = system: SNB-75 CNS
# A549 NSCLC = system: A549 NSCLC
# NCI-H460 lung = system: NCI-H460 lung
# HL-60(TB) leukemia = system: HL-60(TB) leukemia
# K-562 leukemia = system: K-562 leukemia
# LOX IMVI melanoma = system: LOX IMVI melanoma
# HCT-15 colon = system: HCT-15 colon
# KM12 colon = system: KM12 colon
# SNB-78 CNS = system: SNB-78 CNS
# COLO 205 colon = system: COLO 205 colon
# SNB-19 CNS = system: SNB-19 CNS
# OVCAR-8 ovarian = system: OVCAR-8 ovarian
# LXFL 529 NSCLC = system: LXFL 529 NSCLC
# SK-MEL-2 melanoma = system: SK-MEL-2 melanoma
# IGROV1 ovarian = system: IGROV1 ovarian
# RPMI-8226 leukemia = system: RPMI-8226 leukemia
# NCI-H23 lung = system: NCI-H23 lung
# CCRF-CEM leukemia = system: CCRF-CEM leukemia
# CAKI-1 renal = system: CAKI-1 renal
# EKVX NSCLC = system: EKVX NSCLC
# HT29 colon = system: HT29 colon
# SN12C renal = system: SN12C renal
# HOP-18 NSCLC = system: HOP-18 NSCLC
# SF-539 CNS = system: SF-539 CNS
# SK-MEL-28 melanoma = system: SK-MEL-28 melanoma
# UACC-257 melanoma = system: UACC-257 melanoma
# XF 498 CNS = system: XF 498 CNS
# SR leukemia = system: SR leukemia
# NCI-H226 lung = system: NCI-H226 lung
# MOLT-4 leukemia = system: MOLT-4 leukemia
# RXF-631 renal = system: RXF-631 renal
# RXF 393 renal = system: RXF 393 renal
# OVCAR-4 ovarian = system: OVCAR-4 ovarian
smiles,measurement,setting,value
CC(C)(C)C1=CC(=C2C(=O)C(=O)c3ccccc3C2=O)C=C(C(C)(C)C)C1=O,TGI,HCC-2998 colon,> 100 µM
same,TGI,M19-MEL melanoma,> 100 µM
same,TGI,ACHN renal,> 100 µM
same,TGI,KM20L2 colon,> 100 µM
same,TGI,TK-10 renal,> 100 µM
same,TGI,OVCAR-3 ovarian,> 100 µM
same,TGI,HCT-116 colon,> 100 µM
same,TGI,SF-268 CNS,> 100 µM
same,TGI,A498 renal,0.93 µM
same,TGI,SW-620 colon,> 100 µM
same,TGI,MALME-3M melanoma,58.7 µM
same,TGI,UO-31 renal,> 100 µM
same,TGI,DLD-1 colon,> 100 µM
same,TGI,SK-MEL-5 melanoma,> 100 µM
same,TGI,HOP-92 NSCLC,82.9 µM
same,TGI,OVCAR-5 ovarian,> 100 µM
same,TGI,UACC-62 melanoma,> 100 µM
same,TGI,HOP-62 NSCLC,> 100 µM
same,TGI,M14 melanoma,> 100 µM
same,TGI,786-0 renal,> 100 µM
same,TGI,DMS 114 small cell lung,66.2 µM
same,TGI,U251 CNS,> 100 µM
same,TGI,SF-295 CNS,> 100 µM
same,TGI,NCI-H522 lung,37.9 µM
same,TGI,DMS 273 small cell lung,> 100 µM
same,TGI,SK-OV-3 ovarian,> 100 µM
same,TGI,SNB-75 CNS,> 100 µM
same,TGI,A549 NSCLC,> 100 µM
same,TGI,NCI-H460 lung,> 100 µM
same,TGI,HL-60(TB) leukemia,> 100 µM
same,TGI,K-562 leukemia,> 100 µM
same,TGI,LOX IMVI melanoma,> 100 µM
same,TGI,HCT-15 colon,> 100 µM
same,TGI,KM12 colon,> 100 µM
same,TGI,SNB-78 CNS,> 100 µM
same,TGI,COLO 205 colon,> 100 µM
same,TGI,SNB-19 CNS,> 100 µM
same,TGI,OVCAR-8 ovarian,> 100 µM
same,TGI,LXFL 529 NSCLC,> 100 µM
same,TGI,SK-MEL-2 melanoma,> 100 µM
same,TGI,IGROV1 ovarian,> 100 µM
same,TGI,RPMI-8226 leukemia,86.9 µM
same,TGI,NCI-H23 lung,> 100 µM
same,TGI,CCRF-CEM leukemia,> 100 µM
same,TGI,CAKI-1 renal,> 100 µM
same,TGI,EKVX NSCLC,> 100 µM
same,TGI,HT29 colon,> 100 µM
same,TGI,SN12C renal,> 100 µM
same,TGI,HOP-18 NSCLC,> 100 µM
same,TGI,SF-539 CNS,> 100 µM
same,TGI,SK-MEL-28 melanoma,> 100 µM
same,TGI,UACC-257 melanoma,80.2 µM
CC(C)NC(=O)CCN(C(=O)O)S(=O)(=O)c1ccc(NC(=O)c2ccccc2)cc1,TGI,XF 498 CNS,> 100 µM
same,TGI,SR leukemia,> 83 µM
same,TGI,NCI-H226 lung,> 100 µM
same,TGI,HCC-2998 colon,> 100 µM
same,TGI,MOLT-4 leukemia,> 57.9 µM
same,TGI,M19-MEL melanoma,> 89.2 µM
same,TGI,ACHN renal,> 100 µM
same,TGI,KM20L2 colon,> 100 µM
same,TGI,TK-10 renal,> 100 µM
same,TGI,OVCAR-3 ovarian,> 100 µM
same,TGI,HCT-116 colon,> 54.1 µM
same,TGI,SF-268 CNS,> 100 µM
same,TGI,A498 renal,> 100 µM
same,TGI,RXF-631 renal,> 100 µM
same,TGI,SW-620 colon,> 52.4 µM
same,TGI,MALME-3M melanoma,> 100 µM
same,TGI,UO-31 renal,> 100 µM
same,TGI,DLD-1 colon,> 72.6 µM
same,TGI,SK-MEL-5 melanoma,> 100 µM
same,TGI,HOP-92 NSCLC,> 100 µM
same,TGI,OVCAR-5 ovarian,> 100 µM
same,TGI,UACC-62 melanoma,> 82.7 µM
same,TGI,HOP-62 NSCLC,> 100 µM
same,TGI,M14 melanoma,> 100 µM
same,TGI,786-0 renal,> 100 µM
same,TGI,DMS 114 small cell lung,> 54.3 µM
same,TGI,U251 CNS,32.1 µM
same,TGI,SF-295 CNS,> 100 µM
same,TGI,NCI-H522 lung,> 100 µM
same,TGI,DMS 273 small cell lung,> 56.7 µM
same,TGI,SK-OV-3 ovarian,> 100 µM
same,TGI,SNB-75 CNS,> 100 µM
same,TGI,A549 NSCLC,> 71.2 µM
same,TGI,NCI-H460 lung,> 59.7 µM
same,TGI,HL-60(TB) leukemia,> 64 µM
same,TGI,K-562 leukemia,> 64.5 µM
same,TGI,RXF 393 renal,> 100 µM
same,TGI,LOX IMVI melanoma,> 61.7 µM
same,TGI,HCT-15 colon,> 59.8 µM
same,TGI,OVCAR-4 ovarian,> 100 µM
same,TGI,KM12 colon,> 100 µM
same,TGI,SNB-78 CNS,> 100 µM
same,TGI,COLO 205 colon,> 58.5 µM
same,TGI,SNB-19 CNS,> 100 µM
same,TGI,OVCAR-8 ovarian,> 94.7 µM
same,TGI,LXFL 529 NSCLC,> 100 µM
same,TGI,SK-MEL-2 melanoma,> 100 µM
same,TGI,IGROV1 ovarian,> 100 µM
same,TGI,RPMI-8226 leukemia,> 71.5 µM
same,TGI,NCI-H23 lung,> 100 µM
same,TGI,CCRF-CEM leukemia,> 63.4 µM
same,TGI,CAKI-1 renal,> 100 µM
same,TGI,EKVX NSCLC,> 100 µM
same,TGI,HT29 colon,> 100 µM
same,TGI,SN12C renal,> 100 µM
same,TGI,HOP-18 NSCLC,> 100 µM
same,TGI,SF-539 CNS,67.5 µM
same,TGI,SK-MEL-28 melanoma,> 100 µM
same,TGI,UACC-257 melanoma,> 79.3 µM
